Results: publication PMC12198292, “Advancing in vitro assessment of iodide uptake inhibition: integrating a novel biotransformation pretreatment step” (Archives of Toxicology, 2025)
Converted amounts (≈) assume the structure as drawn. “And” between values parts separate entries of the source, which are not always exact repeats. Equal entries are not always repeated. Where two headings read alike, the source gives them in different places.

What was measured:
[1] = target: T1, human NIS (Homo sapiens, UniProt Q92911)
T1 sequence (Q92911 1-643): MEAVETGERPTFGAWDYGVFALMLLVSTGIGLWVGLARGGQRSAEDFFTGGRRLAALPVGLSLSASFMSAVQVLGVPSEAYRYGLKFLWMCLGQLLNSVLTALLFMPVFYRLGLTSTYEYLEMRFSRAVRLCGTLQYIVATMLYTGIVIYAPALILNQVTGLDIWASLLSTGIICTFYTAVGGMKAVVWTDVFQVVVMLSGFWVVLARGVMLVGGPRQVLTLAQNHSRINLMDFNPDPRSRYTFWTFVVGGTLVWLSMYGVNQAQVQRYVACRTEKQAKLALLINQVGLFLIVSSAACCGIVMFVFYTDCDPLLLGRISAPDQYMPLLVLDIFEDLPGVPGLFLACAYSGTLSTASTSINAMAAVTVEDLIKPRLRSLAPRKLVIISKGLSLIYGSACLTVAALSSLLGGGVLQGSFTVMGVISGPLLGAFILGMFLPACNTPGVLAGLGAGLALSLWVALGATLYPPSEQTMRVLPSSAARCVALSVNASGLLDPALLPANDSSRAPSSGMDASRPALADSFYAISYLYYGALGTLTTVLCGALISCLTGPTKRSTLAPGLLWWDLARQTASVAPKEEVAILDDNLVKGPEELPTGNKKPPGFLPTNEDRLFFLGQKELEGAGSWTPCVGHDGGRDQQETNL

[2] = in vitro; details: human
[3] = target: T1, human NIS; assay: Biotransformation (BTS, rat S9)-augmented NIS-inhibition assay, HEK293T NIS02
[4] = target: T1, human NIS; assay: NIS-inhibition assay (iodide uptake, Sandell–Kolthoff reaction) on HEK293T NIS 02; assay type: cell-based; set-up: host or cells: HEK293T (lentiviral transduction, puromycin selection, GFP sorting; lines NIS 02 and NIS C)
[5] = target: T1, human NIS; assay: NIS-inhibition assay (iodide uptake, Sandell–Kolthoff reaction) on HEK293T NIS C; assay type: cell-based; set-up: host or cells: HEK293T (lentiviral transduction, puromycin selection, GFP sorting; lines NIS 02 and NIS C)
[6] = target: T2, NIS (Rattus norvegicus, UniProt Q63008); assay: NIS-inhibition assay (iodide uptake, Sandell–Kolthoff reaction) on FRTL-5; assay type: cell-based; details: mean ± SD, ≥ 3 independent experiments; 2 h exposure; SK reaction
T2 construct: the endogenously NIS-expressing rat FRTL-5 cell line; host or cells: FRTL-5 (CVCL_0265)
T2 sequence (Q63008 1-618): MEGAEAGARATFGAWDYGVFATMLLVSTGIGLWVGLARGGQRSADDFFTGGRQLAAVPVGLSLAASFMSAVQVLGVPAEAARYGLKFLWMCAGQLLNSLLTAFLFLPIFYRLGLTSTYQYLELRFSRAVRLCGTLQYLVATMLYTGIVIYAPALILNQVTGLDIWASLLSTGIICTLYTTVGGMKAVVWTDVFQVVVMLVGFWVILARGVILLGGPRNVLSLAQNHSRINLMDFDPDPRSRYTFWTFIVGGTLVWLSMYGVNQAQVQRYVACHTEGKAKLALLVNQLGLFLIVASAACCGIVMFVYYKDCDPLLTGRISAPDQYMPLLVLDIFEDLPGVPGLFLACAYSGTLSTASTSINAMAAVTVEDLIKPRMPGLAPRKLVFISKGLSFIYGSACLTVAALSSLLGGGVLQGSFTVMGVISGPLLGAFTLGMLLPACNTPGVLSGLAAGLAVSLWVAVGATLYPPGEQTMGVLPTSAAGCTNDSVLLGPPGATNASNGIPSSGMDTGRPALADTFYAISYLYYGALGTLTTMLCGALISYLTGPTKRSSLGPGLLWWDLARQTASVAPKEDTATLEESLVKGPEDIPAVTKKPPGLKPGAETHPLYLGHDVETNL

[7] = set-up: method as in PubChem https://pubchem.ncbi.nlm.nih.gov/; details: ref PubChem https://pubchem.ncbi.nlm.nih.gov/; cited from earlier work
[8] = target: T2, NIS; details: FRTL-5, RAIU, ref Buckalew et al., 2020, cited from earlier work; for IC50: read-out: Data from literature NIS IC50
[9] = ref PubChem https://pubchem.ncbi.nlm.nih.gov/; cited from earlier work
[10] = system: FRTL-5 cells; assay: Neutral red uptake viability assay, FRTL-5; details: for NR IC20 FRTL-5: mean±SD, 2 h exposure
[11] = system: HEK293T NIS C cells; assay: Neutral red uptake viability assay, HEK293T NIS C; details: for NR IC20 HEK293T NISC: mean±SD, 2 h exposure
[12] = target: T1, human NIS; set-up: host or cells: HEK293T (lentiviral transduction, puromycin selection, GFP sorting; lines NIS 02 and NIS C); details: hNIS-HEK293T-EPA, RAIU, cited from earlier work; for IC50: read-out: Data from literature NIS IC50; for IC20: read-out: Data from literature NIS IC20
[13] = set-up: method as in PubChem https://pubchem.ncbi.nlm.nih.gov/; details: ref PubChem https://pubchem.ncbi.nlm.nih.gov/; cited from earlier work; remark: listed apart in the source
[14] = target: T1, human NIS; set-up: method as in Dong et al., 2019; details: MCF7hNIS; SK; ref Dong et al., 2019; read-out: Data from literature NIS IC20; cited from earlier work
[15] = target: T1, human NIS; set-up: host or cells: HEK293T (lentiviral transduction, puromycin selection, GFP sorting; lines NIS 02 and NIS C); method as in Dong et al., 2019; details: hNIS-HEK293T-EPA; SK; ref Dong et al., 2019; cited from earlier work
[16] = system: HEK293T NIS02 cells; assay: Neutral red uptake viability assay, HEK293T NIS02; details: read-out: NR IC20 HEK293T NIS02; viability, neutral red assay; mean±SD; 2 h exposure
[17] = mean ± SD, ≥ 3 independent experiments, 2 h exposure, SK reaction
[18] = mean ± SD, ≥ 3 independent experiments, 2 h exposure, SK reaction, read-out: NIS IC50 HEK293T NIS 02

CCOc1cc(C(C)(C)C)ccc1C1COC(c2c(F)cccc2F)=N1 (stereo not shown) [ETX, Etoxazole, reference compound]
effect of fully active BTS (W/S9, W/cof) on NIS inhibition versus control setups [1]: no biotransformation-related effect changes were detected | IC20 [2]: 28.8 µM | IC20 ([3]; read-out: NIS inhibition IC20 SM): 0.61 µM | IC50 ([4]; NIS IC50 HEK293T NIS 02): 7.1 ± 4.3 µM | IC50 [5]: 11.7 ± 8 µM

Cn1cc[nH]c1=S [MMI, Methimazole, reference compound]
NIS IC50 FRTL-5 [6]: n.e and n.e. / n.e. | log Kow [7]: -0.34 | Data from literature NIS IC50 [8]: n.e. | solubility in water [9]: 200 mg/mL (≈ 1750 mM) | NR IC20 FRTL-5 [10]: n.e. / n.e. | NR IC20 HEK293T NISC [11]: n.e./ n.e. | NIS IC50 HEK293T NIS 02 [4, 17]: n.e and n.e./ n.e. | NIS IC50 HEK293T NIS C [5, 17]: n.e and n.e./ n.e. | Data from literature NIS IC50 ([12]; ref Buckalew et al., 2020): n.e. | Data from literature NIS IC50 ([12]; ref Hallinger et al., 2017): n.e. | Data from literature NIS IC50 ([12]; ref US-EPA, 2024): n.e. | Data from literature NIS IC50 ([12]; ref Wang et al., 2019): n.e.

O=S(=O)(O)C(F)(F)C(F)(F)C(F)(F)C(F)(F)C(F)(F)C(F)(F)C(F)(F)C(F)(F)F [PFOS, Perfluorooctane sulfonate]
IC50 [6]: 9.3 µM and 9.31 µM | log Kow [7]: -1.08 | Henry‘s law [13]: 4.34x10^-7 atm- m^3/mol | IC50 [8]: 0.4 µM | NR IC20 FRTL-5 [10]: n.e. | NR IC20 HEK293T NISC [11]: n.e. / n.e. | effect of fully active BTS (W/S9, W/cof) on NIS inhibition versus control setups ([3]; two-way ANOVA, p < 0.05): no significant differences were observed | IC50 [4, 18]: 30.9 ± 21.7 µM | NIS IC50 HEK293T NIS C [5, 17]: n.e and n.e. / n.e. | IC50 ([12]; ref Buckalew et al., 2020): 1.3 µM | IC50 ([12]; ref US-EPA, 2024): 20.5 µM | IC50 ([12]; ref Wang et al., 2018): 16.6 µM | IC50 ([12]; ref Wang et al., 2019): 17 µM

O=C(O)C(F)(F)C(F)(F)C(F)(F)C(F)(F)C(F)(F)C(F)(F)C(F)(F)F [PFOA, Perfluorooctanoic acid]
NIS IC50 FRTL-5 [6]: n.e and n.e. / n.e. | IC50 [8]: 25.1 µM | solubility in water [9]: 3.3 mg/mL (≈ 7.97 mM) | NR IC20 FRTL-5 [10]: n.e. / n.e. | NR IC20 HEK293T NISC [11]: n.e./ n.e. | NIS IC50 HEK293T NIS 02 [4, 17]: n.e and n.e. / n.e. | NIS IC50 HEK293T NIS C [5, 17]: n.e and n.e./ n.e. | IC50 ([12]; ref Buckalew et al., 2020): 75.9 µM | Data from literature NIS IC50 ([12]; ref US-EPA, 2024): n.e. | Data from literature NIS IC50 ([12]; ref Wang et al., 2018): n.e.

CCCCOC(=O)c1ccccc1C(=O)OCCCC [DBP, Dibutylphthalate]
IC50 [6]: 92.3 ± 11.8 µM | IC20 [1]: 5.57 ± 4.6 µM | effect of fully active BTS (W/S9, W/cof) on NIS inhibition versus control setups [1]: statistically significant reduction in NIS inhibition | log Kow [7]: 4.5 | Henry‘s law [13]: 1.81x10^-6 atm- m^3/mol | IC20 [14]: 63.1 µM | IC20 at 2 h [2]: 42 µM | increase of IC20 by preincubation in fully active BTS setup compared to the denatured BTS setup ([3]; W/S9, W/cof vs D S9, W/cof): more than ninefold | IC50 [4, 18]: 51.7 µM and 52 µM | NIS IC50 HEK293T NIS C [5, 17]: n.e and n.e. | IC20 ([12]; ref Dong et al., 2019): 26.9 µM | IC20 ([12]; ref Hallinger et al., 2017): 191 µM | IC50 ([12]; ref US-EPA, 2024): 26.9 µM | Data from literature NIS IC50 ([12]; ref Wang et al., 2018): n.e. | Data from literature NIS IC50 [15]: n.e.

CC(C)(c1cc(Br)c(O)c(Br)c1)c1cc(Br)c(O)c(Br)c1 [TBBPA, Tetrabromobisphenol A]
IC50 [6]: 91.8 ± 10.8 µM | log Kow [7]: 4.75 | Henry‘s law [13]: 2.0x10^-7 atm- m^3/mol | IC20 ([10]; read-out: NR IC20 FRTL-5, mean±SD, 2 h exposure): 33.4 µM | IC20 [16]: 66.8 µM | IC20 ([11]; read-out: NR IC20 HEK293T NISC, mean±SD, 2 h exposure): 57.6 µM | IC50 [4, 18]: 30.1 ± 11.8 µM | IC50 ([5]; mean ± SD, ≥ 3 independent experiments, 2 h exposure, SK reaction, read-out: NIS IC50 HEK293T NIS C): 54 ± 27.1 µM | IC50 ([12]; ref US-EPA, 2024): 91.1 µM
